Reference: the supplement of paper PMC10307832

Columns and labels:
Assay in all cases: relative viability (nuclei count vs DMSO), 5 days (fraction); higher = more cells survive
NCI-H2228 = tested on: NCI-H2228
In short: (§1)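 After 5 days of treatment, lung cancer cells in 1536-well plates were fixed and stained in a single step (final 0.05% Triton X-100, 1% formaldehyde, 1 ug/ml Hoechst) and their nuclei counted on 4× images. Treatment had been applied by pin tool the day after seeding as one drug alone or as a fixed anchor-drug dose with five library-drug doses (not always all listed) in √10 steps. Relative viability is the nuclei count of treated wells divided by that of vehicle wells, and values are medians of duplicate plates.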

NCI-H1755 = tested on: NCI-H1755
In short: as §1

RERF-LC-KJ = tested on: RERF-LC-KJ
In short: as §1

NCI-H1395 = tested on: NCI-H1395
In short: as §1

NCI-H3122 = tested on: NCI-H3122
In short: as §1

LOU-NH91 = tested on: LOU-NH91
In short: as §1

NCI-H1793 = tested on: NCI-H1793
In short: as §1

LU99A = tested on: LU99A
In short: as §1

HCC-78 = tested on: HCC-78
In short: as §1

ChaGo-K-1 = tested on: ChaGo-K-1
In short: as §1

NCI-H1651 = tested on: NCI-H1651
In short: as §1

ABC-1 = tested on: ABC-1
In short: as §1

NCI-H460 = tested on: NCI-H460
In short: as §1

NCI-H2170 = tested on: NCI-H2170
In short: as §1

PC-3 [JPC-3] = tested on: PC-3 [JPC-3]
In short: as §1

UMC-11 = tested on: UMC-11
In short: as §1

NCI-H2405 = tested on: NCI-H2405
In short: as §1

NCI-H2087 = tested on: NCI-H2087
In short: as §1

HCC-366 = tested on: HCC-366
In short: as §1

CAL-12T = tested on: CAL-12T
In short: as §1

LC-2-ad = tested on: LC-2-ad
In short: as §1

NCI-H1944 = tested on: NCI-H1944
In short: as §1

`O=c1cc(N2CCOCC2)oc2c(-c3cccc4c3sc3ccccc34)cccc12` + COc1cc2c(Oc3ccc(NC(=O)C4(C(=O)Nc5ccc(F)cc5)CC4)cc3F)ccnc2cc1OCCCN1CCOCC1 [Foretinib] (partner 0.25 µM) gave a relative viability (NCI-H2228; first compound 0.01 µM) of 0.864, a relative viability (NCI-H2228; first compound 0.03162 µM) of 1.08 and a relative viability (NCI-H2228; first compound 0.1 µM) of 0.981. It also gave a relative viability (NCI-H2228; first compound 0.3162 µM) of 0.89, a relative viability (NCI-H2228; first compound 1 µM) of 0.9 and a relative viability (NCI-H1755; first compound 0.01 µM) of 0.899. The relative viability (NCI-H1755; first compound 0.03162 µM) was 0.952, the relative viability (NCI-H1755; first compound 0.1 µM) was 0.959 and the relative viability (NCI-H1755; first compound 0.3162 µM) was 0.926. The relative viability (NCI-H1755; first compound 1 µM) was 0.934, the relative viability (RERF-LC-KJ; first compound 0.01 µM) was 0.831 and the relative viability (RERF-LC-KJ; first compound 0.03162 µM) was 0.876. It also gave a relative viability (RERF-LC-KJ; first compound 0.1 µM) of 0.91, a relative viability (RERF-LC-KJ; first compound 0.3162 µM) of 0.852 and a relative viability (RERF-LC-KJ; first compound 1 µM) of 0.846. For the same compound, the relative viability (NCI-H1395; first compound 0.01 µM) was 0.995, the relative viability (NCI-H1395; first compound 0.03162 µM) was 0.915 and the relative viability (NCI-H1395; first compound 0.1 µM) was 0.973. The relative viability (NCI-H1395; first compound 0.3162 µM) was 1.17, the relative viability (NCI-H1395; first compound 1 µM) was 0.986 and the relative viability (NCI-H3122; first compound 0.01 µM) was 0.953. It also gave a relative viability (NCI-H3122; first compound 0.03162 µM) of 0.918, a relative viability (NCI-H3122; first compound 0.1 µM) of 1 and a relative viability (NCI-H3122; first compound 0.3162 µM) of 0.932. For the same compound, the relative viability (NCI-H3122; first compound 1 µM) was 0.954, the relative viability (LOU-NH91; first compound 0.01 µM) was 0.869 and the relative viability (LOU-NH91; first compound 0.03162 µM) was 0.938. The relative viability (LOU-NH91; first compound 0.1 µM) was 1, the relative viability (LOU-NH91; first compound 0.3162 µM) was 0.927 and the relative viability (LOU-NH91; first compound 1 µM) was 0.955. It also gave a relative viability (NCI-H1793; first compound 0.01 µM) of 0.594, a relative viability (NCI-H1793; first compound 0.1 µM) of 0.568 and a relative viability (NCI-H1793; first compound 0.3162 µM) of 0.685. For the same compound, the relative viability (NCI-H1793; first compound 1 µM) was 0.486, the relative viability (LU99A; first compound 0.01 µM) was 0.937 and the relative viability (LU99A; first compound 0.03162 µM) was 0.739. It also gave a relative viability (LU99A; first compound 0.1 µM) of 0.908, a relative viability (LU99A; first compound 0.3162 µM) of 0.806 and a relative viability (LU99A; first compound 1 µM) of 0.777. It also gave a relative viability (HCC-78; first compound 0.01 µM) of 0.492, a relative viability (HCC-78; first compound 0.03162 µM) of 0.457 and a relative viability (HCC-78; first compound 0.1 µM) of 0.544. For the same compound, the relative viability (HCC-78; first compound 0.3162 µM) was 0.581, the relative viability (HCC-78; first compound 1 µM) was 0.533 and the relative viability (ChaGo-K-1; first compound 0.01 µM) was 0.901. It also gave a relative viability (ChaGo-K-1; first compound 0.03162 µM) of 1.01, a relative viability (ChaGo-K-1; first compound 0.1 µM) of 0.948 and a relative viability (ChaGo-K-1; first compound 0.3162 µM) of 0.869. For the same compound, the relative viability (ChaGo-K-1; first compound 1 µM) was 0.96, the relative viability (NCI-H1651; first compound 0.01 µM) was 0.775 and the relative viability (NCI-H1651; first compound 0.03162 µM) was 0.766. The relative viability (NCI-H1651; first compound 0.1 µM) was 0.958, the relative viability (NCI-H1651; first compound 0.3162 µM) was 0.796 and the relative viability (NCI-H1651; first compound 1 µM) was 0.624. It also gave a relative viability (ABC-1; first compound 0.01 µM) of 1.03, a relative viability (ABC-1; first compound 0.03162 µM) of 0.943 and a relative viability (ABC-1; first compound 0.1 µM) of 1.48. It also gave a relative viability (ABC-1; first compound 0.3162 µM) of 1.11, a relative viability (ABC-1; first compound 1 µM) of 1.02 and a relative viability (NCI-H460; first compound 0.01 µM) of 0.981. It also gave a relative viability (NCI-H460; first compound 0.03162 µM) of 1.03, a relative viability (NCI-H460; first compound 0.1 µM) of 0.987 and a relative viability (NCI-H460; first compound 0.3162 µM) of 0.985. It also gave a relative viability (NCI-H460; first compound 1 µM) of 1.04, a relative viability (NCI-H2170; first compound 0.01 µM) of 0.968 and a relative viability (NCI-H2170; first compound 0.03162 µM) of 0.542. For the same compound, the relative viability (NCI-H2170; first compound 0.1 µM) was 1.03, the relative viability (NCI-H2170; first compound 0.3162 µM) was 0.935 and the relative viability (NCI-H2170; first compound 1 µM) was 0.942. The relative viability (PC-3 [JPC-3]; first compound 0.01 µM) was 1.01, the relative viability (PC-3 [JPC-3]; first compound 0.03162 µM) was 1.08 and the relative viability (PC-3 [JPC-3]; first compound 0.1 µM) was 1.05. For the same compound, the relative viability (PC-3 [JPC-3]; first compound 0.3162 µM) was 1.01, the relative viability (PC-3 [JPC-3]; first compound 1 µM) was 1.06 and the relative viability (UMC-11; first compound 0.01 µM) was 1. For the same compound, the relative viability (UMC-11; first compound 0.03162 µM) was 1.08, the relative viability (UMC-11; first compound 0.1 µM) was 1.03 and the relative viability (UMC-11; first compound 0.3162 µM) was 1.01. It also gave a relative viability (UMC-11; first compound 1 µM) of 0.91, a relative viability (NCI-H2405; first compound 0.01 µM) of 1.07 and a relative viability (NCI-H2405; first compound 0.03162 µM) of 1.07. The relative viability (NCI-H2405; first compound 0.1 µM) was 1.12, the relative viability (NCI-H2405; first compound 0.3162 µM) was 1.03 and the relative viability (NCI-H2405; first compound 1 µM) was 1.02. It also gave a relative viability (NCI-H2087; first compound 0.01 µM) of 1.09, a relative viability (NCI-H2087; first compound 0.03162 µM) of 1.4 and a relative viability (NCI-H2087; first compound 0.1 µM) of 1.28. For the same compound, the relative viability (NCI-H2087; first compound 0.3162 µM) was 1.24, the relative viability (NCI-H2087; first compound 1 µM) was 1.2 and the relative viability (HCC-366; first compound 0.01 µM) was 0.941. The relative viability (HCC-366; first compound 0.03162 µM) was 0.918, the relative viability (HCC-366; first compound 0.1 µM) was 0.99 and the relative viability (HCC-366; first compound 0.3162 µM) was 0.961. For the same compound, the relative viability (HCC-366; first compound 1 µM) was 0.853, the relative viability (CAL-12T; first compound 0.01 µM) was 1.12 and the relative viability (CAL-12T; first compound 0.03162 µM) was 0.973. The relative viability (CAL-12T; first compound 0.1 µM) was 1.14, the relative viability (CAL-12T; first compound 0.3162 µM) was 1.03 and the relative viability (CAL-12T; first compound 1 µM) was 1.11. It also gave a relative viability (LC-2-ad; first compound 0.01 µM) of 0.89, a relative viability (LC-2-ad; first compound 0.03162 µM) of 1.03 and a relative viability (LC-2-ad; first compound 0.1 µM) of 0.921. The relative viability (LC-2-ad; first compound 0.3162 µM) was 0.877, the relative viability (LC-2-ad; first compound 1 µM) was 0.795 and the relative viability (NCI-H1944; first compound 0.01 µM) was 0.876. It also gave a relative viability (NCI-H1944; first compound 0.03162 µM) of 0.928, a relative viability (NCI-H1944; first compound 0.1 µM) of 0.829 and a relative viability (NCI-H1944; first compound 0.3162 µM) of 0.89. It also gave a relative viability (NCI-H1944; first compound 1 µM) of 0.821.
